Experimental data taken from patent US10947242B2, “[1,2,4]triazolo[1,5and#8208;A]pyrimidine compounds as PDE2 inhibitors” (Janssen Pharmaceutica NV, priority 2016, dated 2021).
Several values for one entry are separate records, joined by “and”; a condition that tells them apart may be missing. Identical values can stand only once. Like-named read-outs stand apart in the source and are kept apart here.

Assays:
PDE2A = target: T1, PDE2A (Rattus norvegicus, UniProt Q01062); assay: PDE2 occupancy by test compounds, ex-vivo autoradiography with [3H]B-17a; format: in vivo, Male Wistar rats; conditions: for receptor occupancy at 10 mg/kg: percentage receptor occupancy, ex-vivo autoradiography, striatum; for ED50: read-out: PDE Occupancy ED50
T1 construct: Twenty μm-thick striatal sections were cut; from tissue; host or cells: rat brain, striatal sections
T1 sequence (Q01062 1-928): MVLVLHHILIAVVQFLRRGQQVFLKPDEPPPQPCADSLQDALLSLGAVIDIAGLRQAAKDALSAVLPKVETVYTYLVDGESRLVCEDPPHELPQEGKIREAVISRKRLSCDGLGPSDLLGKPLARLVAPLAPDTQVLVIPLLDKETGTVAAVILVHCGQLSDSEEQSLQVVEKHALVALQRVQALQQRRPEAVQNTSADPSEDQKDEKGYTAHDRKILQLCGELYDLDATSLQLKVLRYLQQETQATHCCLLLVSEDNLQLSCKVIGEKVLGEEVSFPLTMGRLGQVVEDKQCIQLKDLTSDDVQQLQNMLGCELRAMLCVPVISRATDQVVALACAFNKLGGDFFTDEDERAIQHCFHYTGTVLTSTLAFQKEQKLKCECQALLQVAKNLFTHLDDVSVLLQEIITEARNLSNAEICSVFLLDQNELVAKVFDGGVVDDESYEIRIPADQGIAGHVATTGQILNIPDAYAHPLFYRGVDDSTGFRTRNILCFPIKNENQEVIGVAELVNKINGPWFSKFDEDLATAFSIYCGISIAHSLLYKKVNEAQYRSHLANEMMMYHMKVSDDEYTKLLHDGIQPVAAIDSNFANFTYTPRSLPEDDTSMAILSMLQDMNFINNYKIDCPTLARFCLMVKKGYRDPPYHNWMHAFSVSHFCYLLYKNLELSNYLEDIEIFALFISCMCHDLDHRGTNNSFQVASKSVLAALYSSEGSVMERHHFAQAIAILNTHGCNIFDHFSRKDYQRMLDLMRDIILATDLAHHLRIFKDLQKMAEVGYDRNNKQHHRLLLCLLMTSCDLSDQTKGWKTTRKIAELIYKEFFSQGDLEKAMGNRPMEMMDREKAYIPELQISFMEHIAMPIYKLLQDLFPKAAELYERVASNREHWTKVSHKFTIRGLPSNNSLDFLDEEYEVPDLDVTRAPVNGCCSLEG

[1] = target: T2, Human recombinant PDE3A (hPDE3A) (Homo sapiens, UniProt Q14432); assay: In vitro assay PDE3A (SPA, 3H-cAMP hydrolysis); format: biochemical; conditions: for IC50: hPDE3B pIC50, read-out: pIC50 (converted); for Emax: read-out: hPDE3B Emax, read-out: Emax;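 on all read-outs here: the method names PDE3A and the table heading PDE3B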
T2 construct: purchased Scottish Biomedical; host or cells: Sf9 insect cells
Outline: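 Human PDE3A, cloned from brain, as partially purified Sf9 lysate. Substrate 0.4 μM cAMP plus [3H]-cAMP (2.4 μCi/ml final) in 50 mM Tris pH 7.8, 8.3 mM MgCl2, 1.7 mM EGTA, 60 min at room temperature, 1% DMSO final. Hydrolysis read by SPA scintillation counting against no-enzyme blanks and DMSO controls.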

[2] = target: T3, Human recombinant PDE10A (hPDE10A) (Homo sapiens, UniProt Q9Y233); assay: In vitro assay PDE10A, human clone (SPA, 3H-cAMP hydrolysis); format: biochemical; conditions: human clone (h), default; for Emax: read-out: hPDE10A2 Emax; for IC50: read-out: hPDE10A2 pIC50 (converted)
T3 construct: His tag (inferred from metal chelate purification); made in house; host or cells: Sf9 insect cells (baculovirus)
Outline: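 Human recombinant PDE10A was expressed in Sf9 cells via baculovirus and incubated with compound in 50 mM Tris pH 7.8, 8.3 mM MgCl2, 1.7 mM EGTA. Substrate was 60 nM cAMP plus 0.008 μCi 3H-cAMP for 60 min at room temperature, read by SPA scintillation counting. Controls used 1% DMSO, and blanks omitted enzyme.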

[3] = target: T4, Human recombinant PDE2A (hPDE2A) (Homo sapiens, UniProt O00408); assay: In vitro assay PDE2A (SPA, 3H-cGMP hydrolysis); format: biochemical; conditions: for Emax: read-out: hPDE2A Emax
T4 construct: His tag (inferred from metal chelate purification); made in house; host or cells: Sf9 insect cells (baculovirus)

[4] = human recombinant PDE2A, 10 μM cGMP substrate, read-out: hPDE2A pIC50 (converted)
[5] = read-out: hPDE2A pIC50 (converted)
[6] = route PO (oral), drug dose producing 50% receptor occupancy

T3 sequence (Q9Y233 267-1055): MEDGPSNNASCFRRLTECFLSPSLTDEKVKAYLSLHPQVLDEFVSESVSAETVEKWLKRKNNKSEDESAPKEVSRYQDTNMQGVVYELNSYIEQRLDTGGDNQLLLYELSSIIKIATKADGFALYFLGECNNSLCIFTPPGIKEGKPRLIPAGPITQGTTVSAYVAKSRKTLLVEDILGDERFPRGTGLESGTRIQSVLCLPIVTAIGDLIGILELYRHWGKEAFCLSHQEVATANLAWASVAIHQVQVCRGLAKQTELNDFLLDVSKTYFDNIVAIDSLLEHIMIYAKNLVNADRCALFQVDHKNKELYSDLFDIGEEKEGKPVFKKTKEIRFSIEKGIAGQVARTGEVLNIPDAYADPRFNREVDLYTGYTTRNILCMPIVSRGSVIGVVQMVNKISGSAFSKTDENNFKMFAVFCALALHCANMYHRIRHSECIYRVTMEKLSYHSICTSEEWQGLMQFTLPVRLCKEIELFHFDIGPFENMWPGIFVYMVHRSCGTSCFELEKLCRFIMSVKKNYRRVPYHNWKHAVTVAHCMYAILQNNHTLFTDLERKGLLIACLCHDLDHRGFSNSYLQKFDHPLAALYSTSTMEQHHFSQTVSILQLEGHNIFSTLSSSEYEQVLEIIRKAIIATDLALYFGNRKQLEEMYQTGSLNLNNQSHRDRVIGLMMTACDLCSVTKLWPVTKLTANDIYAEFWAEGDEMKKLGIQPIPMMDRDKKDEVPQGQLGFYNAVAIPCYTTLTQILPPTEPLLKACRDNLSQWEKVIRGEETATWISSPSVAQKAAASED
T4 sequence (O00408 whole entry): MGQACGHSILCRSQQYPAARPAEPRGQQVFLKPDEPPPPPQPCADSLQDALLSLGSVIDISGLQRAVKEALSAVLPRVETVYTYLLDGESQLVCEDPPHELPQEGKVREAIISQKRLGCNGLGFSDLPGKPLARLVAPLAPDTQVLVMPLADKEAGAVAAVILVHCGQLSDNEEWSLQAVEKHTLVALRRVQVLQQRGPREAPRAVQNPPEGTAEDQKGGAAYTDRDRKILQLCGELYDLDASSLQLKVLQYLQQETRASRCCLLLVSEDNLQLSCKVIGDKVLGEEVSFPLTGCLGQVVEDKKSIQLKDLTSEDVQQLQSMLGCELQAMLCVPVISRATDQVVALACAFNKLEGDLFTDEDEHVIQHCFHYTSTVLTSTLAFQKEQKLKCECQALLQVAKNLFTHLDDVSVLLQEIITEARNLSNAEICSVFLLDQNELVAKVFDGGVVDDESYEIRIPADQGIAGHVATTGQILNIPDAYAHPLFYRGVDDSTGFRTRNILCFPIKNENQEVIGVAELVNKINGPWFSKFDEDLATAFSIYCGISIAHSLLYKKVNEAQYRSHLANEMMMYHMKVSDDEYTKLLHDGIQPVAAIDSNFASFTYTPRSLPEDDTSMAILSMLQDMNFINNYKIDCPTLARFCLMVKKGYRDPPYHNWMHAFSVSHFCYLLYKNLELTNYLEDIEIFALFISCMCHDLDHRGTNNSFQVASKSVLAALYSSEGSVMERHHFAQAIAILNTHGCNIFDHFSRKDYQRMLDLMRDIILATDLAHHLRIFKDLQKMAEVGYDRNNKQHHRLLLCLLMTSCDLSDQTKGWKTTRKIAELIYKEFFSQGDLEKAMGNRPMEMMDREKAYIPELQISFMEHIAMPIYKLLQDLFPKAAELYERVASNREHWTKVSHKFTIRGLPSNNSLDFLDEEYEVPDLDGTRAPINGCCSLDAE
T2 sequence (Q14432 whole entry): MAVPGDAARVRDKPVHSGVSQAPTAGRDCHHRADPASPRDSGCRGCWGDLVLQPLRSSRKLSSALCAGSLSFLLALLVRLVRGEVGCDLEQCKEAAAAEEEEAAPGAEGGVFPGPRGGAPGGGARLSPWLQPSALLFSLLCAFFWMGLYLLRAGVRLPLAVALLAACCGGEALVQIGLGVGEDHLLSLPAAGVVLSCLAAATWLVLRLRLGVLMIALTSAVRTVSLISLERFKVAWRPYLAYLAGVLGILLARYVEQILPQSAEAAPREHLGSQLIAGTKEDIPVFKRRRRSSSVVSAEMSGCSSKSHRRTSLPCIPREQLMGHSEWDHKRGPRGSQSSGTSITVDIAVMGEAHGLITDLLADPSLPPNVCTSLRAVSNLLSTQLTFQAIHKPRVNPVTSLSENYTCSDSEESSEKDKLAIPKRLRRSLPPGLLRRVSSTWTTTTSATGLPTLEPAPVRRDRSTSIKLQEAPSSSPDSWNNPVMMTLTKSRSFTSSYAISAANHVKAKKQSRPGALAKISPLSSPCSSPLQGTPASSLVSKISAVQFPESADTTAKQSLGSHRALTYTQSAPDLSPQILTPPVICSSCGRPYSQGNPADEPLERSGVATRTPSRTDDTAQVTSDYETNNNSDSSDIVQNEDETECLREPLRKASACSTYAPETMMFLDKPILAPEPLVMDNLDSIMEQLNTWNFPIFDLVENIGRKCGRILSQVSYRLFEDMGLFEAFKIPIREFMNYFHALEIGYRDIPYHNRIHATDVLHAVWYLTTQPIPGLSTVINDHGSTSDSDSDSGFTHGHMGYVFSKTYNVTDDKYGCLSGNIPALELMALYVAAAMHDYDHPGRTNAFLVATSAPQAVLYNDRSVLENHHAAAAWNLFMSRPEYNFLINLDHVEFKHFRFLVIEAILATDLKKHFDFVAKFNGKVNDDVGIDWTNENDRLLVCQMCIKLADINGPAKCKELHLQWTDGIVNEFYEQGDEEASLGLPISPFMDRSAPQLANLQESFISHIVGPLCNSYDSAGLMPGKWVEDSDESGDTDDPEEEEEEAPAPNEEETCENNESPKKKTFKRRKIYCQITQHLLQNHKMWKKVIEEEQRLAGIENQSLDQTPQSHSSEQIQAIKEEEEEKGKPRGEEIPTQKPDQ

O=C(c1ccc2ncsc2c1)N1[C@H]2CC[C@H](c3cc(C(F)F)nc4ncnn34)[C@@H]1CC2 [Compound 25a]
melting point: 240.33 °C
receptor occupancy at 10 mg/kg (PDE2A; route SC (subcutaneous)): 66%
ED50 (PDE2A; po): 4 mg/kg
IC50 [1]: 8710 nM
Emax [1]: 54%
hPDE10A2 Emax [2]: 96
Emax [2]: 94%
IC50 [2]: 589 nM and 389 nM
IC50 [3, 4]: 0.708 nM
Emax ([3]; human recombinant PDE2A): 100%
Emax [3]: 100%
IC50 [3, 5]: 1.07 nM

Cc1cc(C(=O)N2[C@H]3CC[C@H](c4cc(C(F)F)nc5ncnn45)[C@@H]2CC3)cc(C)n1 [Compound 29]
melting point: 176.52 °C
receptor occupancy at 10 mg/kg (PDE2A; route SC (subcutaneous)): 31%
hPDE3B Emax [1]: 18
IC50 [1]: > 10000 nM
Emax [2]: 90%
IC50 [2]: 692 nM
IC50 [3, 4]: 1.51 nM
Emax ([3]; human recombinant PDE2A): 101%
Emax [3]: 101%
IC50 [3, 5]: 1.51 nM

Cc1cc(C(=O)N2CC[C@@H](C)[C@H](c3cc(C(F)F)nc4ncnn34)C2)cnc1C [Compound 49]
melting point: 263.81 °C
receptor occupancy at 10 mg/kg (PDE2A; sc, route SC (subcutaneous)): 12%
IC50 [1]: 5750 nM
Emax [1]: 42%
Emax [2]: 95%
IC50 [2]: 513 nM
IC50 [3, 4]: 2.09 nM
Emax ([3]; human recombinant PDE2A): 99%
Emax [3]: 99%
IC50 [3, 5]: 2.09 nM

Cc1cnc(C(F)(F)F)cc1C(=O)N1CC[C@@H](C)[C@H](c2cc(C(F)F)nc3ncnn23)C1 [Compound 52]
melting point: 228.39 °C
receptor occupancy at 10 mg/kg (PDE2A; po, route PO (oral)): 2%
IC50 [1]: > 10000 nM
Emax [1]: 22%
Emax [2]: 76%
IC50 [2]: 3020 nM
IC50 [3, 4]: 13.8 nM
Emax ([3]; human recombinant PDE2A): 101%
Emax [3]: 101%
IC50 [3, 5]: 13.8 nM

C[C@@H]1CCN(C(=O)c2cc3ccccc3o2)C[C@H]1c1cc(C(F)F)nc2ncnn12 [Compound 69]
melting point: 209.73 °C
receptor occupancy at 10 mg/kg (PDE2A; po, route PO (oral)): 0%
IC50 [1]: 380 nM
Emax [1]: 95%
Emax [2]: 100%
IC50 [2]: 45.7 nM
IC50 [3, 4]: 0.407 nM
Emax ([3]; human recombinant PDE2A): 102%
Emax [3]: 102%
IC50 [3, 5]: 0.407 nM

C[C@@H]1CCN(C(=O)c2ccc(Cl)c(C3CC3)c2)C[C@H]1c1cc(C(F)F)nc2ncnn12 [Compound 72]
melting point: 177.6 °C
receptor occupancy at 10 mg/kg (PDE2A; po, route PO (oral)): 0%
IC50 [1]: > 1000 nM
Emax [1]: 46%
Emax [2]: 92%
IC50 [2]: 105 nM
IC50 [3, 4]: 1.02 nM
Emax ([3]; human recombinant PDE2A): 100%
Emax [3]: 100%
IC50 [3, 5]: 1.02 nM

COc1c(C)cc(C(=O)N2CC[C@@H](C)[C@H](c3cc(C(F)F)nc4ncnn34)C2)cc1C [Compound 77]
melting point: 177.37 °C
receptor occupancy at 10 mg/kg (PDE2A; po, route PO (oral)): 54%
ED50 (PDE2A; [6]): 5.67 mg/kg
IC50 [1]: 676 nM
Emax [1]: 96%
Emax [2]: 98%
IC50 [2]: 83.2 nM
IC50 [3, 4]: 0.457 nM
Emax ([3]; human recombinant PDE2A): 101%
Emax [3]: 101%
IC50 [3, 5]: 0.457 nM

Cc1cc(C(=O)N2CC[C@@H](C)[C@H](c3cc(C(F)F)nc4ncnn34)C2)cc(C2CC2)n1 [Compound 93]
melting point: 201.12 °C
receptor occupancy at 10 mg/kg (PDE2A; po, route PO (oral)): 85%
ED50 (PDE2A; [6]): 7.8 mg/kg
IC50 [1]: 2570 nM
Emax [1]: 84%
Emax [2]: 99%
IC50 [2]: 36.3 nM and 39.8 nM
IC50 [3, 4]: 0.398 nM
Emax ([3]; human recombinant PDE2A): 101%
Emax [3]: 101%
IC50 [3, 5]: 0.457 nM

Cc1cc(Cl)cc(C(=O)N2CC[C@@H](C)[C@H](c3cc(C(F)F)nc4ncnn34)C2)c1 [Compound 102]
melting point: 215.44 °C
receptor occupancy at 10 mg/kg (PDE2A; po, route PO (oral)): -4%
IC50 [1]: > 1000 nM
Emax [1]: 44%
Emax [2]: 95%
IC50 [2]: 26.3 nM
IC50 ([3]; hPDE2A pIC50): 0.676 nM
IC50 ([3]; hPDE2A pIC50, human recombinant PDE2A, 10 μM cGMP substrate): 0.676 nM
Emax [3]: 100%

C[C@@H]1CCN(C(=O)c2ccc3cc[nH]c3c2)C[C@H]1c1cc(C(F)F)nc2ncnn12 [Compound 106]
melting point: 273.02 °C
receptor occupancy at 10 mg/kg (PDE2A; po, route PO (oral)): 0%
IC50 [1]: 389 nM
Emax [1]: 98%
Emax [2]: 99%
IC50 [2]: 21.4 nM
IC50 [3, 4]: 0.891 nM
Emax ([3]; human recombinant PDE2A): 100%
Emax [3]: 100%
IC50 [3, 5]: 0.891 nM

COc1cc(C(=O)N2CC[C@@H](C)[C@H](c3cc(C(F)F)nc4ncnn34)C2)cc(Cl)n1 [Compound 108]
melting point: 151.39 °C
receptor occupancy at 10 mg/kg (PDE2A; po, route PO (oral)): 65%
ED50 (PDE2A; [6]): 4.8 mg/kg
IC50 [1]: 2690 nM
Emax [1]: 80%
Emax [2]: 99%
IC50 [2]: 52.5 nM
IC50 [3, 4]: 0.912 nM
Emax ([3]; human recombinant PDE2A): 100%
Emax [3]: 100%
IC50 [3, 5]: 0.912 nM

C[C@@H]1CCN(C(=O)c2ccc3ocnc3c2)C[C@H]1c1cc(C(F)F)nc2ncnn12 [Compound 116]
melting point: 192.09 °C
receptor occupancy at 10 mg/kg (PDE2A; sc, route SC (subcutaneous)): 3%
IC50 [1]: 2190 nM
Emax [1]: 82%
hPDE10A2 Emax [2]: 98
Emax [2]: 99%
IC50 [2]: 9.77 nM and 79.4 nM
IC50 [3, 4]: 1.15 nM and 1.12 nM
Emax ([3]; human recombinant PDE2A): 100%
Emax [3]: 101%
IC50 [3, 5]: 1.12 nM

C[C@@H]1CCN(C(=O)c2ccnc(C3CC3)c2F)C[C@H]1c1cc(C(F)F)nc2ncnn12 [Compound 120]
melting point: 173.99 °C
receptor occupancy at 10 mg/kg (PDE2A; po, route PO (oral)): 12%
IC50 [1]: 708 nM
Emax [1]: 95%
Emax [2]: 96%
IC50 [2]: 200 nM
IC50 [3, 4]: 1.74 nM
Emax ([3]; human recombinant PDE2A): 100%
Emax [3]: 100%
IC50 [3, 5]: 1.74 nM
